Assay results taken from PubChem BioAssay (NCI).
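Where inhibition never reached the appropriate level, the endpoint shown equals the highest concentration tested. Otherwise, values were interpolated linearly from a five-concentration, 48-hour dose response in 96-well plates. GI50: concentration for 50% inhibition of growth. Definition used: TGI = concentration required for complete inhibition of growth.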

Legend:
Experiment in all cases: NCI anticancer screen, dose series, 48 h
HS 578T breast = system: HS 578T breast
NCI-H226 lung = system: NCI-H226 lung
SK-MEL-2 melanoma = system: SK-MEL-2 melanoma
M14 melanoma = system: M14 melanoma
OVCAR-4 ovarian = system: OVCAR-4 ovarian
HOP-62 NSCLC = system: HOP-62 NSCLC
SK-MEL-28 melanoma = system: SK-MEL-28 melanoma
TK-10 renal = system: TK-10 renal
IGROV1 ovarian = system: IGROV1 ovarian
KM12 colon = system: KM12 colon

| Structure (SMILES) | TGI (HS 578T breast) [µM] | TGI (NCI-H226 lung) [µM] | TGI (SK-MEL-2 melanoma) [µM] | TGI (M14 melanoma) [µM] | TGI (OVCAR-4 ovarian) [µM] | TGI (HOP-62 NSCLC) [µM] | TGI (SK-MEL-28 melanoma) [µM] | TGI (TK-10 renal) [µM] | TGI (IGROV1 ovarian) [µM] | TGI (KM12 colon) [µM] | GI50 (HS 578T breast) [µM] | GI50 (NCI-H226 lung) [µM] | GI50 (SK-MEL-2 melanoma) [µM] | GI50 (M14 melanoma) [µM] | GI50 (OVCAR-4 ovarian) [µM] | GI50 (HOP-62 NSCLC) [µM] | GI50 (SK-MEL-28 melanoma) [µM] | GI50 (TK-10 renal) [µM] | GI50 (IGROV1 ovarian) [µM] | GI50 (KM12 colon) [µM] |
| --- | --- | --- | --- | --- | --- | --- | --- | --- | --- | --- | --- | --- | --- | --- | --- | --- | --- | --- | --- | --- |
| O=[N+]([O-])c1ccc(N/N=C/CC(O)(C(F)(F)F)C(F)(F)F)c([N+](=O)[O-])c1 | 8.16 | > 10 | 6.64 | > 10 | > 10 | > 10 | > 10 | > 10 | > 10 | > 10 |  |  |  |  |  |  |  |  |  |  |
| Fc1ccc(N=C/C=C/Nc2ccc(F)cc2)cc1 | 47.2 | 36.2 | 26.7 | 11.9 | 29.8 | 33 | 22 | 4.32 | 26.2 | 19.9 |  |  |  |  |  |  |  |  |  |  |
| Cc1c(-c2ccccc2)nn2cc(-c3ccccc3)nnc12 | 75.6 | 49.5 | 47 | > 100 | > 100 | > 100 | > 100 | > 100 | > 100 | > 100 |  |  |  |  |  |  |  |  |  |  |
| O=C(c1ccccc1)n1cc(-c2ccccc2)c2c(=O)[nH]cnc21 | > 100 | > 100 | > 100 | > 100 | > 100 | > 100 | > 100 | > 100 | > 100 | > 100 |  |  |  |  |  |  |  |  |  |  |
| Nc1ccccc1.[C-]#[O+].[C-]#[O+].[C-]#[O+].[C-]#[O+].[C-]#[O+].[Cr] | > 10 | > 10 | > 10 | > 10 | > 10 | > 10 | > 10 | > 10 | > 10 | > 10 | 3.28 | > 10 | 3.91 | 3.44 | 6.7 | 4.6 | 4.52 | 4.83 | 5.53 | 7.97 |
| CSC1C(=O)Nc2ccc3ccccc3c21 (stereo not given) | 46 | > 100 | > 100 | 68.3 | 39.9 | 71.8 | > 100 | 33.2 | 33.3 | 35.5 |  |  |  |  |  |  |  |  |  |  |
| COc1cc([C@@H]2c3cc4c(cc3[C@@H](Nc3ccccc3C(=O)c3ccccc3)[C@H]3COC(=O)[C@H]23)OCO4)cc(OC)c1OC | > 100 | > 100 | > 100 | > 53.7 | > 100 | > 100 | > 100 | > 100 | 90.5 | 0.653 |  |  |  |  |  |  |  |  |  |  |
| CSc1c(C#N)c(N)nc2c(N=Nc3ccc(Br)cc3)c(N)nn12 | 5.81 | 39.5 | 17.2 | 24.6 | 15.1 | 32.3 | 30.8 | 29.7 | 8.82 | 23.6 |  |  |  |  |  |  |  |  |  |  |
| CC1=NN(C(=O)CC(=O)Nc2ccccc2Cl)C(=O)C1N=Nc1ccc(S(=O)(=O)c2ccc(N=NC3C(=O)N(C(=O)CC(=O)Nc4ccccc4Cl)N=C3C)cc2)cc1 (stereo not given) | > 100 | > 100 | > 100 | > 100 | > 100 | > 100 | > 100 | > 100 | > 100 | > 100 |  |  |  |  |  |  |  |  |  |  |
| COC(=O)C1=C(OC(=O)/C=C/c2ccccc2)C(C(=O)OC)[C@@]2(O)[C@@H](C(=O)OC)[C@H](C)C[C@@H]1[C@@H]2C(=O)OC (stereo not given in full) | 50.1 | > 100 | 91.1 | > 100 | > 100 | 48.2 | > 100 | > 100 | 63.3 | > 100 |  |  |  |  |  |  |  |  |  |  |
| Cc1cn(CCCCCCC2=NCCCN2)c(=O)[nH]c1=O | > 100 | > 100 | > 100 | > 100 | > 100 | > 100 | > 100 | > 100 | > 100 | > 100 |  |  |  |  |  |  |  |  |  |  |
| C=CC(OC(C)=O)c1ccc(OC(=O)C(C)C)c(OC)c1 (stereo not given) | > 80.6 | 39.8 | 15.8 | 17.3 | 16.2 | 28.4 | 28.8 | 11.5 | 28.7 | 7.2 |  |  |  |  |  |  |  |  |  |  |
| CC(=O)OC(Cc1ccc2ccccc2n1)(C(F)(F)F)C(F)(F)F | 6.58 | 4.77 | 4.36 | 3.48 | 7.08 | 27.9 | 4.03 | 2.55 | 6.02 | 12.7 |  |  |  |  |  |  |  |  |  |  |
| CSc1cc(-c2ccccn2)nc(-c2ccccn2)c1 | 48.9 | 0.955 | 14.9 | 0.335 | 13.2 | 4.49 | 14.8 | 0.75 | 8.99 | 14.4 |  |  |  |  |  |  |  |  |  |  |
| CCOC(=O)c1c(Br)c(-c2ccc(OC)cc2)c(Br)n1C | 47.6 | 87.5 | 39.1 | > 100 | > 100 | 39.7 | > 100 | 94 | > 100 | 38.1 |  |  |  |  |  |  |  |  |  |  |
| COc1cc(O)c2c(=O)c3c(C)cccc3n(C)c2c1 | > 10 | > 10 | > 10 | > 10 | > 10 | > 10 | > 10 | > 10 | > 10 | > 10 |  |  |  |  |  |  |  |  |  |  |
| CCOC(=O)C(CC(C)C)NC(=O)CSc1nnc(COc2ccc(Cl)cc2)n1-c1ccccc1 (stereo not given) | 60.9 | 48.5 | 30 | 31.9 | 36.2 | 36.8 | 33.1 | 33.1 | 29.2 | 39.7 |  |  |  |  |  |  |  |  |  |  |
| COc1cc(C2=NNC(=O)c3ccccc3N2c2nc(-c3cccs3)nc3ccc(Br)cc23)cc(OC)c1OC | 44.1 | > 100 | > 100 | 73.8 | 86.4 | 59.2 | 32.3 | 89.9 | > 100 | 30.5 |  |  |  |  |  |  |  |  |  |  |
